Reference: US20110178104A1, “Anti-Heparin Compounds” (POLYMEDIX INC., priority 2010, published 2011)

How the values were obtained:
enoxaparin (ENOX) = experiment: FXa chromogenic assay (absence of plasma), enoxaparin; conditions: enoxaparin 0.1 μg/mL, absence of plasma
fondaparinux (FONDAPX) = experiment: FXa chromogenic assay (absence of plasma), fondaparinux; conditions: fondaparinux 0.02 μg/mL, absence of plasma
[1] = system: unfractionated heparin (UFH); experiment: aPTT clotting assay, UFH 0.2 U/mL in plasma (Example 7); assay type: biochemical; conditions: UFH 0.2 U/mL in plasma
Procedure: aPTT clotting Assay. Unfractionated heparin was mixed with plasma at a final concentration of 0.2 U/mL. […] The ACL Elite Hemostasis analyzer (Beckman Coulter™) was used to add aPTT reagent (HemosIL SynthASil) to supplemented plasma. Clotting was initiated by addition of CaCl2 and time to clot was recorded.

COc1ccc(NC(=O)C(CCCCN)NC(=O)c2cc(NC(=O)C(CCCCN)NC(=O)c3cc(NC(=O)C(CCCCN)NC(=O)c4cc(NC(=O)C(CCCCN)NC(=N)N)ccc4OC)ccc3OC)ccc2OC)cc1C(N)=O (stereo not shown) [Compound 29]
ENOX (FXa) EC50 (enoxaparin (ENOX)): 0.78 µg/mL | FONDAPX (FXa) EC50 (fondaparinux (FONDAPX)): 8.33 µg/mL

COc1ccc(NC(=O)[C@@H](CCCCN)NC(=O)c2c(OC)ccc(NC(=O)[C@@H](CCCCN)NC(=O)c3c(OC)ccc(NC(=O)[C@@H](CCCCN)NC(=O)c4c(OC)ccc(NC(=O)[C@H](N)CCCCN)c4OC)c3OC)c2OC)c(OC)c1C(N)=O [Compound 36]
ENOX (FXa) EC50 (enoxaparin (ENOX)): 45.00 µg/mL | FONDAPX (FXa) EC50 (fondaparinux (FONDAPX)): inactive

COc1ccc(NC(=O)[C@@H](CCCNC(=N)N)NC(=O)c2cc(NC(=O)[C@@H](CCCNC(=N)N)NC(=O)c3cc(NC(=O)[C@@H](CCCNC(=N)N)NC(=O)c4cc(NC(=O)[C@@H](C)NC(C)=O)ccc4OC)ccc3OC)ccc2OC)cc1C(=O)NCCN [Compound 56]
ENOX (FXa) EC50 (enoxaparin (ENOX)): 0.43 µg/mL | FONDAPX (FXa) EC50 (fondaparinux (FONDAPX)): 5.24 µg/mL

COc1ccc(NC(=O)[C@@H](CCCNC(=N)N)NC(=O)c2cc(NC(=O)[C@@H](CCCNC(=N)N)NC(=O)c3cc(NC(=O)[C@@H](CCCNC(=N)N)NC(=O)c4cc(NC(=O)[C@@H](C)NC(=O)CCCCNC(=N)N)ccc4OC)ccc3OC)ccc2OC)cc1C(=O)NCCN [Compound 57]
ENOX (FXa) EC50 (enoxaparin (ENOX)): 0.17 µg/mL | FONDAPX (FXa) EC50 (fondaparinux (FONDAPX)): 3.25 µg/mL

COc1ccc(NC(=O)[C@@H](CCCNC(=N)N)NC(=O)c2cc(NC(=O)[C@@H](CCCNC(=N)N)NC(=O)c3cc(NC(=O)[C@@H](CCCNC(=N)N)NC(=O)c4cc(NC(=O)[C@@H](C)NC(=O)CCN)ccc4OC)ccc3OC)ccc2OC)cc1C(=O)NCCN [Compound 59]
ENOX (FXa) EC50 (enoxaparin (ENOX)): 0.13 µg/mL | FONDAPX (FXa) EC50 (fondaparinux (FONDAPX)): 4.53 µg/mL

COc1ccc(NC(=O)[C@@H](CCCNC(=N)N)NC(=O)c2cccc(NC(=O)[C@H](N)CCCNC(=N)N)c2)cc1C(=O)N[C@H](CCCNC(=N)N)C(=O)Nc1ccc(OC)c(C(=O)N[C@H](CCCNC(=N)N)C(=O)Nc2cccc(C(N)=O)c2)c1 [Compound 21]
ENOX (FXa) EC50 (enoxaparin (ENOX)): 0.65 µg/mL | FONDAPX (FXa) EC50 (fondaparinux (FONDAPX)): 8.84 µg/mL

COc1ccc(NC(=O)[C@@H](CCCNC(=N)N)NC(=O)c2cc(NC(=O)[C@@H](CCCNC(=N)N)NC(=O)c3cc(NC(=O)[C@@H](C)NC(=O)c4cc(NC(=O)[C@H](N)CCCNC(=N)N)ccc4OC)ccc3OC)ccc2OC)cc1C(N)=O [Compound 15]
ENOX (FXa) EC50 (enoxaparin (ENOX)): 0.92 µg/mL | FONDAPX (FXa) EC50 (fondaparinux (FONDAPX)): 7.84 µg/mL

COc1ccc(NC(=O)[C@@H](CCCNC(=N)N)NC(=O)c2cc(NC(=O)[C@@H](CCCNC(=N)N)NC(=O)c3cc(NC(=O)[C@@H](CCCNC(=N)N)NC(=O)c4cc(NC(=O)[C@@H](C)NC(=O)CCN)ccc4OC)ccc3OC)ccc2OC)cc1C(=O)NCCCCCN [Compound 63]
ENOX (FXa) EC50 (enoxaparin (ENOX)): 0.10 µg/mL | FONDAPX (FXa) EC50 (fondaparinux (FONDAPX)): 3.29 µg/mL

COc1ccc(NC(=O)[C@H](CCCCN)NC(=O)c2cc(NC(=O)[C@H](CCCCN)NC(=O)c3cc(NC(=O)[C@H](CCCCN)NC(=O)c4cc(NC(=O)[C@@H](N)CCCCN)ccc4OC)ccc3OCC(=O)O)ccc2OC)cc1C(N)=O [Compound 118]
UFH (aPTT) EC50 [1]: 3.14 µg/mL

COc1ccc(NC(=O)[C@@H](CCCNC(=N)N)NC(=O)c2cc(NC(=O)[C@@H](CCCNC(=N)N)NC(=O)c3cc(NC(=O)[C@@H](CCCNC(=N)N)NC(=O)c4cc(NC(=O)[C@@H](C)N)ccc4OC)ccc3OC)ccc2OC)cc1C(=O)NCCN [Compound 54]
ENOX (FXa) EC50 (enoxaparin (ENOX)): 0.22 µg/mL | FONDAPX (FXa) EC50 (fondaparinux (FONDAPX)): 5.92 µg/mL

COc1ccc(NC(=O)[C@@H](CCCCN)NC(=O)c2cc(NC(=O)[C@H](CCCCN)NC(=O)c3cc(NC(=O)[C@@H](CCCCN)NC(=O)c4cc(NC(=O)[C@@H](N)CCCCN)ccc4OC)ccc3OC)ccc2OC)cc1C(N)=O [Compound 37]
ENOX (FXa) EC50 (enoxaparin (ENOX)): 45.00 µg/mL | FONDAPX (FXa) EC50 (fondaparinux (FONDAPX)): inactive

COc1ccc(NC(=O)[C@@H](CCCNC(=N)N)NC(=O)c2cc(NC(=O)[C@H](N)CCCNC(=N)N)ccc2F)cc1C(=O)N[C@H](CCCNC(=N)N)C(=O)Nc1ccc(OC)c(C(=O)N[C@H](CCCNC(=N)N)C(=O)Nc2ccc(F)c(C(N)=O)c2)c1 [Compound 24]
ENOX (FXa) EC50 (enoxaparin (ENOX)): 0.47 µg/mL | FONDAPX (FXa) EC50 (fondaparinux (FONDAPX)): 9.23 µg/mL

COc1ccc(NC(=O)[C@@H](CCCNC(=N)N)NC(=O)c2cc(NC(=O)[C@@H](CCCNC(=N)N)NC(=O)c3cc(NC(=O)[C@@H](CCCNC(=N)N)NC(=O)c4cc(NC(=O)[C@@H](C)N)ccc4OC)ccc3OC)ccc2OC)cc1C(=O)NCCCCCN [Compound 55]
ENOX (FXa) EC50 (enoxaparin (ENOX)): 0.18 µg/mL | FONDAPX (FXa) EC50 (fondaparinux (FONDAPX)): 4.16 µg/mL

COc1ccc(NC(=O)[C@@H](CCCNC(=N)N)NC(=O)c2cc(NC(=O)[C@@H](CCCNC(=N)N)NC(=O)c3cccc(NC(=O)[C@@H](CCCNC(=N)N)NC(=O)c4cccc(NC(=O)[C@H](N)CCCNC(=N)N)c4)c3)ccc2OC)cc1C(N)=O [Compound 22]
ENOX (FXa) EC50 (enoxaparin (ENOX)): 0.56 µg/mL | FONDAPX (FXa) EC50 (fondaparinux (FONDAPX)): 7.63 µg/mL

COc1ccc(NC(=O)[C@@H](CCCNC(=N)N)NC(=O)c2cc(NC(=O)[C@@H](CCCNC(=N)N)NC(=O)c3cc(NC(=O)[C@@H](CCCNC(=N)N)NC(=O)c4cc(NC(=O)[C@@H](C)NC(=O)CCCCN)ccc4OC)ccc3OC)ccc2OC)cc1C(=O)NCCN [Compound 58]
ENOX (FXa) EC50 (enoxaparin (ENOX)): 0.36 µg/mL | FONDAPX (FXa) EC50 (fondaparinux (FONDAPX)): 3.94 µg/mL

COc1ccc(NC(=O)[C@H](CCCCN)NC(=O)c2cc(NC(=O)[C@H](CCCCN)NC(=O)c3cc(OC(=O)[C@@H](N)CCCCN)ccc3OC)ccc2OC)cc1C(=O)N[C@@H](CCCCN)C(=O)Nc1ccc(OCC(=O)O)c(C(N)=O)c1 [Compound 116]
UFH (aPTT) EC50 [1]: 3.10 µg/mL

COc1ccc(NC(=O)[C@@H](CCCNC(=N)N)NC(=O)c2cc(NC(=O)[C@@H](CCCNC(=N)N)NC(=O)c3cc(NC(=O)[C@@H](CCCNC(=N)N)NC(=O)c4cc(NC(=O)[C@H](N)CCCNC(N)=O)ccc4OC)ccc3OC)ccc2OC)cc1C(N)=O [Compound 82]
ENOX (FXa) EC50 (enoxaparin (ENOX)): 0.07 µg/mL | FONDAPX (FXa) EC50 (fondaparinux (FONDAPX)): 0.77 µg/mL

COc1ccc(NC(=O)[C@@H](CCCNC(=N)N)NC(=O)c2cc(NC(=O)[C@@H](C)NC(=O)c3cc(NC(=O)[C@@H](CCCNC(=N)N)NC(=O)c4cc(NC(=O)[C@H](N)CCCNC(=N)N)ccc4OC)ccc3OC)ccc2OC)cc1C(N)=O [Compound 14]
ENOX (FXa) EC50 (enoxaparin (ENOX)): 2.04 µg/mL | FONDAPX (FXa) EC50 (fondaparinux (FONDAPX)): 10.31 µg/mL

COc1ccc(NC(=O)[C@@H](CCCNC(N)=O)NC(=O)c2cc(NC(=O)[C@@H](CCCNC(N)=O)NC(=O)c3cc(NC(=O)[C@@H](CCCNC(N)=O)NC(=O)c4cc(NC(=O)[C@H](N)CCCNC(N)=O)ccc4OC)ccc3OC)ccc2OC)cc1C(N)=O [Compound 33]
ENOX (FXa) EC50 (enoxaparin (ENOX)): 4.30 µg/mL | FONDAPX (FXa) EC50 (fondaparinux (FONDAPX)): inactive

COc1ccc(NC(=O)[C@@H](CCCNC(=N)N)NC(=O)c2cc(NC(=O)[C@@H](CCCNC(=N)N)NC(=O)c3cc(NC(=O)[C@@H](Cc4c[nH]c5ccccc45)NC(=O)c4cc(NC(=O)[C@H](N)CCCNC(=N)N)ccc4OC)ccc3OC)ccc2OC)cc1C(N)=O [Compound 85]
ENOX (FXa) EC50 (enoxaparin (ENOX)): 0.36 µg/mL | FONDAPX (FXa) EC50 (fondaparinux (FONDAPX)): 1.93 µg/mL

COc1ccc(NC(=O)[C@@H](CCCNC(=N)N)NC(=O)c2cc(NC(=O)[C@@H](CCCNC(=N)N)NC(=O)c3cc(NC(=O)[C@@H](CCCNC(=N)N)NC(=O)c4cc(NC(=O)[C@H](N)CCCNC(=N)N)ccc4F)ccc3F)ccc2OC)cc1C(N)=O [Compound 25]
ENOX (FXa) EC50 (enoxaparin (ENOX)): 0.97 µg/mL | FONDAPX (FXa) EC50 (fondaparinux (FONDAPX)): 10.36 µg/mL

COc1ccc(NC(=O)[C@@H](CCCCN)NC(=O)c2cc(NC(=O)[C@@H](CCCNC(=N)N)NC(=O)c3cc(NC(=O)[C@@H](CCCCN)NC(=O)c4cc(NC(=O)[C@H](N)CCCCN)ccc4OC)ccc3OC)ccc2OC)cc1C(N)=O [Compound 32]
ENOX (FXa) EC50 (enoxaparin (ENOX)): 30.00 µg/mL | FONDAPX (FXa) EC50 (fondaparinux (FONDAPX)): inactive

COc1ccc(NC(=O)[C@@H](CCCNC(=N)N)NC(=O)c2cc(NC(=O)[C@@H](CCCNC(=N)N)NC(=O)c3cc(NC(=O)[C@@H](CCCNC(=N)N)NC(=O)c4cc(NC(=O)[C@H](N)CCCNC(=N)N)ccc4OC)ccc3OC)ccc2OC)cc1C(=O)NCCN [Compound 51]
ENOX (FXa) EC50 (enoxaparin (ENOX)): 0.15 µg/mL | FONDAPX (FXa) EC50 (fondaparinux (FONDAPX)): 4.26 µg/mL

COc1ccc(NC(=O)[C@@H](CCCCNC(=N)N)NC(=O)c2cc(NC(=O)[C@@H](CCCCNC(=N)N)NC(=O)c3cc(NC(=O)[C@@H](CCCCNC(=N)N)NC(=O)c4cc(NC(=O)[C@H](N)CCCCNC(=N)N)ccc4OC)ccc3OC)ccc2OC)cc1C(N)=O [Compound 12]
ENOX (FXa) EC50 (enoxaparin (ENOX)): 0.36 µg/mL | FONDAPX (FXa) EC50 (fondaparinux (FONDAPX)): 4.26 µg/mL

COc1ccc(NC(=O)[C@@H](CCCNC(=N)N)NC(=O)c2cc(NC(=O)[C@@H](CCCNC(=N)N)NC(=O)c3cc(NC(=O)[C@@H](CCCNC(=N)N)NC(=O)c4cc(NC(=O)[C@@H](CCCNC(=N)N)NC(=O)CCCCCCCCC(=O)N[C@H](CCCNC(=N)N)C(=O)Nc5ccc(OC)c(C(=O)N[C@H](CCCNC(=N)N)C(=O)Nc6ccc(OC)c(C(=O)N[C@H](CCCNC(=N)N)C(=O)Nc7ccc(OC)c(C(=O)N[C@H](CCCNC(=N)N)C(=O)Nc8ccc(OC)c(C(N)=O)c8)c7)c6)c5)ccc4OC)ccc3OC)ccc2OC)cc1C(N)=O [Compound 66]
UFH (aPTT) EC50 [1]: 2.53 µg/mL

COc1ccc(NC(=O)[C@@H](CCCNC(=N)N)NC(=O)c2cc(NC(=O)[C@@H](CCCNC(=N)N)NC(=O)c3cc(NC(=O)[C@@H](CCCNC(=N)N)NC(=O)c4cc(NC(=O)[C@@H](C)NC(=O)CCCCN)ccc4OC)ccc3OC)ccc2OC)cc1C(=O)NCCCCCN [Compound 62]
ENOX (FXa) EC50 (enoxaparin (ENOX)): 0.10 µg/mL | FONDAPX (FXa) EC50 (fondaparinux (FONDAPX)): 3.99 µg/mL
